Test results: patent US6613718B2, “Aryl ether derivatives and processes for their preparation and herbicidal and desiccant compositions containing them” (Ishihara Sangyo Kaisha, Ltd., priority 2001, dated 2003)

Experiments:
Format in all cases: in vivo
[1] = test system: redroot pigweed (Amaranthus retroflexus, AMARE); assay: Pre-emerge greenhouse herbicide activity screening, phytotoxicity rating; settings: 14 days after application
Outline: (§1)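 Track-sprayer application, nozzle 40-45 cm above soil or canopy; compound in acetone at 15 to 1000 g ai/ha. Visual 0–100 rating at 14 days after treatment.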

[2] = test system: green foxtail (Setaria viridis, SETVI); assay: as above; settings: 14 days after application
Outline: as §1

[3] = test system: sicklepod (Cassia obtusifolia, CASOB); assay: as above; settings: 14 days after application
Outline: as §1

[4] = test system: large crabgrass (Digitaria sanguinalis, DIGSA); assay: as above; settings: 14 days after application
Outline: as §1

[5] = test system: johnsongrass (Sorghum halepense, SORHA); assay: as above; settings: 14 days after application
Outline: as §1

[6] = test system: common ragweed (Ambrosia artemisiifolia L., AMBEL); assay: as above; settings: 14 days after application
Outline: as §1

[7] = test system: lambsquarters (Chenopodium album, CHEAL); assay: as above; settings: 14 days after application
Outline: as §1

[8] = test system: velvetleaf (Abutilon theophrasti, ABUTH); assay: as above; settings: 14 days after application
Outline: as §1

[9] = test system: barnyardgrass (Echinochloa crus-galli, ECHCG); assay: as above; settings: 14 days after application
Outline: as §1

[10] = test system: ivyleaf morningglory (Ipomoea hederacea, IPOHE); assay: as above; settings: 14 days after application
Outline: as §1

[11] = test system: upland rice (Oryza sp., var.Tebonnet, RICE); assay: Post-emerge greenhouse screening, crop safety (phytotoxicity rating); settings: 14 days after application
Outline: as §1

[12] = test system: soybean (Glycine max L., var. Pella 86, SOY); assay: as above; settings: 14 days after application
Outline: as §1

[13] = test system: upland rice (Oryza sp., var.Tebonnet, RICE); assay: Pre-emerge greenhouse screening, crop safety (phytotoxicity rating); settings: 14 days after application
Outline: as §1

[14] = test system: soybean (Glycine max L., var. Pella 86, SOY); assay: as above; settings: 14 days after application
Outline: as §1

[15] = test system: field corn (Zea mays L., var. Dekalb 535, CORN); assay: as above; settings: 14 days after application
Outline: as §1

[16] = test system: field corn (Zea mays L., var. Dekalb 535, CORN); assay: Post-emerge greenhouse screening, crop safety / corn selectivity (phytotoxicity rating); settings: 14 days after application
Outline: as §1

[17] = test system: redroot pigweed (Amaranthus retroflexus, AMARE); assay: Post-emerge greenhouse herbicide activity screening, phytotoxicity rating
Outline: as §1

[18] = test system: green foxtail (Setaria viridis, SETVI); assay: as above
Outline: as §1

[19] = test system: sicklepod (Cassia obtusifolia, CASOB); assay: as above
Outline: as §1

[20] = test system: large crabgrass (Digitaria sanguinalis, DIGSA); assay: as above; settings: 14 days after application
Outline: as §1

[21] = test system: johnsongrass (Sorghum halepense, SORHA); assay: as above; settings: 14 days after application
Outline: as §1

[22] = test system: common ragweed (Ambrosia artemisiifolia L., AMBEL); assay: as above
Outline: as §1

[23] = test system: lambsquarters (Chenopodium album, CHEAL); assay: as above
Outline: as §1

[24] = test system: velvetleaf (Abutilon theophrasti, ABUTH); assay: as above; settings: 14 days after application
Outline: as §1

[25] = test system: barnyardgrass (Echinochloa crus-galli, ECHCG); assay: as above; settings: 14 days after application
Outline: as §1

[26] = test system: ivyleaf morningglory (Ipomoea hederacea, IPOHE); assay: as above; settings: 14 days after application
Outline: as §1

[27] = 125 g ai/ha, 14 days after application
[28] = 250 g ai/ha, 14 days after application

SMILES: Cn1nc(-c2cc(Oc3ncccn3)c(Cl)cc2F)c(=O)n(C)c1=S [Compound 4-1, 6-[4-Chloro-2-fluoro-5-(2-pyrimidinyloxy)phenyl]-3,4-dihydro-2,4-dimethyl-3-thioxo-1,2,4-triazin-5(2H)-one]
- AMARE phytotoxicity rating (0-100 scale) ([1]; 125 g ai/ha): 100
- AMARE phytotoxicity rating (0-100 scale) ([1]; 250 g ai/ha): 100
- SETVI phytotoxicity rating (0-100 scale) ([2]; 125 g ai/ha): 100
- SETVI phytotoxicity rating (0-100 scale) ([2]; 250 g ai/ha): 100
- CASOB phytotoxicity rating (0-100 scale) ([3]; 125 g ai/ha): 50
- CASOB phytotoxicity rating (0-100 scale) ([3]; 250 g ai/ha): 60
- DIGSA phytotoxicity rating (0-100 scale) ([4]; 125 g ai/ha): 99
- DIGSA phytotoxicity rating (0-100 scale) ([4]; 250 g ai/ha): 100
- SORHA phytotoxicity rating (0-100 scale) ([5]; 125 g ai/ha): 99
- SORHA phytotoxicity rating (0-100 scale) ([5]; 250 g ai/ha): 100
- AMBEL phytotoxicity rating (0-100 scale) ([6]; 125 g ai/ha): 85
- AMBEL phytotoxicity rating (0-100 scale) ([6]; 250 g ai/ha): 85
- CHEAL phytotoxicity rating (0-100 scale) ([7]; 125 g ai/ha): 100
- CHEAL phytotoxicity rating (0-100 scale) ([7]; 250 g ai/ha): 100
- ABUTH phytotoxicity rating (0-100 scale) ([8]; 125 g ai/ha): 65
- ABUTH phytotoxicity rating (0-100 scale) ([8]; 250 g ai/ha): 95
- ECHCG phytotoxicity rating (0-100 scale) ([9]; 125 g ai/ha): 90
- ECHCG phytotoxicity rating (0-100 scale) ([9]; 250 g ai/ha): 99
- IPOHE phytotoxicity rating (0-100 scale) ([10]; 125 g ai/ha): 75
- IPOHE phytotoxicity rating (0-100 scale) ([10]; 250 g ai/ha): 100
- RICE crop damage, phytotoxicity rating (0-100 scale) ([11]; 125 g ai/ha): 0
- RICE crop damage, phytotoxicity rating (0-100 scale) ([11]; 250 g ai/ha): 15
- SOY crop damage, phytotoxicity rating (0-100 scale) ([12]; 125 g ai/ha): 50
- SOY crop damage, phytotoxicity rating (0-100 scale) ([12]; 250 g ai/ha): 50
- RICE crop damage, phytotoxicity rating (0-100 scale) ([13]; 125 g ai/ha): 50
- RICE crop damage, phytotoxicity rating (0-100 scale) ([13]; 250 g ai/ha): 60
- SOY crop damage, phytotoxicity rating (0-100 scale) ([14]; 125 g ai/ha): 0
- SOY crop damage, phytotoxicity rating (0-100 scale) ([14]; 250 g ai/ha): 0
- CORN crop damage, phytotoxicity rating (0-100 scale) ([15]; 125 g ai/ha): 0
- CORN crop damage, phytotoxicity rating (0-100 scale) ([15]; 250 g ai/ha): 10
- CORN crop damage, phytotoxicity rating (0-100 scale) ([16]; 125 g ai/ha): 5
- CORN crop damage, phytotoxicity rating (0-100 scale) ([16]; 250 g ai/ha): 15
- AMARE phytotoxicity rating (0-100 scale) [17, 27]: 100
- AMARE phytotoxicity rating (0-100 scale) [17, 28]: 100
- SETVI phytotoxicity rating (0-100 scale) [18, 27]: 50
- SETVI phytotoxicity rating (0-100 scale) [18, 28]: 60
- CASOB phytotoxicity rating (0-100 scale) [19, 27]: 55
- CASOB phytotoxicity rating (0-100 scale) [19, 28]: 55
- DIGSA phytotoxicity rating (0-100 scale) ([20]; 125 g ai/ha): 50
- DIGSA phytotoxicity rating (0-100 scale) ([20]; 250 g ai/ha): 60
- SORHA phytotoxicity rating (0-100 scale) ([21]; 125 g ai/ha): 50
- SORHA phytotoxicity rating (0-100 scale) ([21]; 250 g ai/ha): 75
- AMBEL phytotoxicity rating (0-100 scale) [22, 27]: 30
- AMBEL phytotoxicity rating (0-100 scale) [22, 28]: 60
- CHEAL phytotoxicity rating (0-100 scale) [23, 27]: 99
- CHEAL phytotoxicity rating (0-100 scale) [23, 28]: 100
- ABUTH phytotoxicity rating (0-100 scale) ([24]; 125 g ai/ha): 99
- ABUTH phytotoxicity rating (0-100 scale) ([24]; 250 g ai/ha): 100
- ECHCG phytotoxicity rating (0-100 scale) ([25]; 125 g ai/ha): 55
- ECHCG phytotoxicity rating (0-100 scale) ([25]; 250 g ai/ha): 75
- IPOHE phytotoxicity rating (0-100 scale) ([26]; 125 g ai/ha): 70
- IPOHE phytotoxicity rating (0-100 scale) ([26]; 250 g ai/ha): 70

SMILES: Cn1c(C(F)(F)F)cc(=O)n(-c2cc(Oc3ccccc3[N+](=O)[O-])c(Cl)cc2F)c1=S [Compound 1-49]
- AMARE phytotoxicity rating (0-100 scale) ([1]; 125 g ai/ha): 100
- AMARE phytotoxicity rating (0-100 scale) ([1]; 250 g ai/ha): 100
- SETVI phytotoxicity rating (0-100 scale) ([2]; 125 g ai/ha): 99
- SETVI phytotoxicity rating (0-100 scale) ([2]; 250 g ai/ha): 100
- CASOB phytotoxicity rating (0-100 scale) ([3]; 125 g ai/ha): 50
- CASOB phytotoxicity rating (0-100 scale) ([3]; 250 g ai/ha): 70
- DIGSA phytotoxicity rating (0-100 scale) ([4]; 125 g ai/ha): 95
- DIGSA phytotoxicity rating (0-100 scale) ([4]; 250 g ai/ha): 99
- SORHA phytotoxicity rating (0-100 scale) ([5]; 125 g ai/ha): 40
- SORHA phytotoxicity rating (0-100 scale) ([5]; 250 g ai/ha): 60
- AMBEL phytotoxicity rating (0-100 scale) ([6]; 125 g ai/ha): 70
- AMBEL phytotoxicity rating (0-100 scale) ([6]; 250 g ai/ha): 80
- CHEAL phytotoxicity rating (0-100 scale) ([7]; 125 g ai/ha): 100
- CHEAL phytotoxicity rating (0-100 scale) ([7]; 250 g ai/ha): 100
- ABUTH phytotoxicity rating (0-100 scale) ([8]; 125 g ai/ha): 95
- ABUTH phytotoxicity rating (0-100 scale) ([8]; 250 g ai/ha): 100
- ECHCG phytotoxicity rating (0-100 scale) ([9]; 125 g ai/ha): 45
- ECHCG phytotoxicity rating (0-100 scale) ([9]; 250 g ai/ha): 98
- IPOHE phytotoxicity rating (0-100 scale) ([10]; 125 g ai/ha): 75
- IPOHE phytotoxicity rating (0-100 scale) ([10]; 250 g ai/ha): 80
- RICE crop damage, phytotoxicity rating (0-100 scale) ([11]; 125 g ai/ha): 0
- RICE crop damage, phytotoxicity rating (0-100 scale) ([11]; 250 g ai/ha): 25
- SOY crop damage, phytotoxicity rating (0-100 scale) ([12]; 125 g ai/ha): 10
- SOY crop damage, phytotoxicity rating (0-100 scale) ([12]; 250 g ai/ha): 15
- RICE crop damage, phytotoxicity rating (0-100 scale) ([13]; 125 g ai/ha): 30
- RICE crop damage, phytotoxicity rating (0-100 scale) ([13]; 250 g ai/ha): 35
- SOY crop damage, phytotoxicity rating (0-100 scale) ([14]; 125 g ai/ha): 0
- SOY crop damage, phytotoxicity rating (0-100 scale) ([14]; 250 g ai/ha): 0
- CORN crop damage, phytotoxicity rating (0-100 scale) ([15]; 125 g ai/ha): 0
- CORN crop damage, phytotoxicity rating (0-100 scale) ([15]; 250 g ai/ha): 0
- CORN crop damage, phytotoxicity rating (0-100 scale) ([16]; 125 g ai/ha): 0
- CORN crop damage, phytotoxicity rating (0-100 scale) ([16]; 250 g ai/ha): 0
- AMARE phytotoxicity rating (0-100 scale) ([17]; 31.3 g ai/ha): 98
- AMARE phytotoxicity rating (0-100 scale) ([17]; 62.5 g ai/ha): 98
- AMARE phytotoxicity rating (0-100 scale) [17, 27]: 99
- AMARE phytotoxicity rating (0-100 scale) [17, 28]: 100
- SETVI phytotoxicity rating (0-100 scale) ([18]; 31.3 g ai/ha): 0
- SETVI phytotoxicity rating (0-100 scale) ([18]; 62.5 g ai/ha): 0
- SETVI phytotoxicity rating (0-100 scale) [18, 27]: 0
- SETVI phytotoxicity rating (0-100 scale) [18, 28]: 0
- CASOB phytotoxicity rating (0-100 scale) ([19]; 31.3 g ai/ha): 60
- CASOB phytotoxicity rating (0-100 scale) ([19]; 62.5 g ai/ha): 70
- CASOB phytotoxicity rating (0-100 scale) [19, 27]: 75
- CASOB phytotoxicity rating (0-100 scale) [19, 28]: 75
- DIGSA phytotoxicity rating (0-100 scale) ([20]; 125 g ai/ha): 0
- DIGSA phytotoxicity rating (0-100 scale) ([20]; 250 g ai/ha): 0
- SORHA phytotoxicity rating (0-100 scale) ([21]; 125 g ai/ha): 0
- SORHA phytotoxicity rating (0-100 scale) ([21]; 250 g ai/ha): 0
- AMBEL phytotoxicity rating (0-100 scale) ([22]; 31.3 g ai/ha): 65
- AMBEL phytotoxicity rating (0-100 scale) ([22]; 62.5 g ai/ha): 65
- AMBEL phytotoxicity rating (0-100 scale) [22, 27]: 70
- AMBEL phytotoxicity rating (0-100 scale) [22, 28]: 70
- CHEAL phytotoxicity rating (0-100 scale) ([23]; 31.3 g ai/ha): 98
- CHEAL phytotoxicity rating (0-100 scale) ([23]; 62.5 g ai/ha): 98
- CHEAL phytotoxicity rating (0-100 scale) [23, 27]: 99
- CHEAL phytotoxicity rating (0-100 scale) [23, 28]: 100
- ABUTH phytotoxicity rating (0-100 scale) ([24]; 125 g ai/ha): 98
- ABUTH phytotoxicity rating (0-100 scale) ([24]; 250 g ai/ha): 100
- ECHCG phytotoxicity rating (0-100 scale) ([25]; 125 g ai/ha): 0
- ECHCG phytotoxicity rating (0-100 scale) ([25]; 250 g ai/ha): 0
- IPOHE phytotoxicity rating (0-100 scale) ([26]; 125 g ai/ha): 80
- IPOHE phytotoxicity rating (0-100 scale) ([26]; 250 g ai/ha): 80
